Which melting point does the source give for `O=S(=O)(CCO)CCC(c1cc(F)ccc1F)S(=O)(=O)c1ccc(Cl)cc1` (centres unmarked) [Example 255, 2-[3-[(4-Chlorophenyl)sulfonyl]-3-(2,5-difluorophenyl)propylsulfonyl]ethanol] here?
Its melting point is 111 to 113 °C.

Which melting point does the source give for `CC(C)(C)OC(=O)N1CCC(c2cc(F)ccc2F)(S(=O)(=O)c2ccc(Cl)cc2)CC1` [Example 259, t-Butyl 4-[(4-chlorophenyl)sulfonyl]-4-(2,5-difluorophenyl)-1-piperidinecarboxylate] here?
Its melting point is 101 to 106 °C.

Which melting point does the source give for `CN1CCC(c2cc(F)ccc2F)(S(=O)(=O)c2ccc(Cl)cc2)CC1` [Example 261, 4-[(4-Chlorophenyl)sulfonyl]-4-(2,5-difluorophenyl)-1-methylpiperidine] here?
The melting point was 172 to 175 °C.

Which melting point does the source give for `CC(=O)N1CCC(c2cc(F)ccc2F)(S(=O)(=O)c2ccc(Cl)cc2)CC1` [Example 263, 1-[4-[(4-Chlorophenyl)sulfonyl]-4-(2,5-difluorophenyl)piperidino]-1-ethanone] here?
The melting point was 159 to 160 °C.

For `O=C(c1ccncc1)N1CCC(c2cc(F)ccc2F)(S(=O)(=O)c2ccc(Cl)cc2)CC1` [Example 264, [4-[(4-Chlorophenyl)sulfonyl]-4-(2,5-difluorophenyl)piperidino](4-pyridyl)methanone], which melting point is on record?
Its melting point is 245 to 248 °C.

With `O=C(c1cccnc1)N1CCC(c2cc(F)ccc2F)(S(=O)(=O)c2ccc(Cl)cc2)CC1` [Example 265, [4-[(4-Chlorophenyl)sulfonyl]-4-(2,5-difluorophenyl)piperidino](3-pyridyl)methanone] as the compound, how does the melting point read?
Its melting point is 119 to 124 °C.

For `O=C(c1ccccn1)N1CCC(c2cc(F)ccc2F)(S(=O)(=O)c2ccc(Cl)cc2)CC1` [Example 266, [4-[(4-Chlorophenyl)sulfonyl]-4-(2,5-difluorophenyl)piperidino](2-pyridyl)methanone], which melting point is on record?
The melting point was 193 to 196 °C.

For `COC(=O)N1CCC(c2cc(F)ccc2F)(S(=O)(=O)c2ccc(Cl)cc2)CC1` [Example 267, Methyl 4-[(4-chlorophenyl)sulfonyl]-4-(2,5-difluorophenyl)-1-piperidinecarboxylate], which melting point is on record?
The melting point was 123 to 126 °C.

With `CN(C)C(=O)N1CCC(c2cc(F)ccc2F)(S(=O)(=O)c2ccc(Cl)cc2)CC1` [Example 268, N,N-dimethyl-4-[(4-chlorophenyl)sulfonyl]-4-(2,5-difluorophenyl)-1-piperidinecarboxamide] as the compound, how does the melting point read?
Its melting point is 143 to 146 °C.

With `CS(=O)(=O)N1CCC(c2cc(F)ccc2F)(S(=O)(=O)c2ccc(Cl)cc2)CC1` [Example 269, 4-[(4-Chlorophenyl)sulfonyl]-4-(2,5-difluorophenyl)-1-(methylsulfonyl)piperidine] as the compound, how does the melting point read?
Its melting point is 176 to 178 °C.

Which melting point does the source give for `CN(C)S(=O)(=O)N1CCC(c2cc(F)ccc2F)(S(=O)(=O)c2ccc(Cl)cc2)CC1` [Example 270, N,N-Dimethyl-4-[(4-chlorophenyl)sulfonyl]-4-(2,5-difluorophenyl)-1-piperidinesulfonamide] here?
Its melting point is 125 to 129 °C.

Which melting point does the source give for `CN(C)CC(=O)N1CCC(c2cc(F)ccc2F)(S(=O)(=O)c2ccc(Cl)cc2)CC1` [Example 271, 1-[4-[(4-Chlorophenyl)sulfonyl]-4-(2,5-difluorophenyl)piperidino]-2-(dimethylamino)-1-ethanone] here?
Its melting point is 88 to 92 °C.

For `CCNC(=O)N1CCC(c2cc(F)ccc2F)(S(=O)(=O)c2ccc(Cl)cc2)CC1` [Example 272, N-ethyl-4-[(4-chlorophenyl)sulfonyl]-4-(2,5-difluorophenyl)-1-piperidinecarboxamide], which melting point is on record?
The melting point was 172 to 174 °C.

For `O=S(=O)(c1ccc(Cl)cc1)C(CCCCCCO)c1cc(F)ccc1F` (centres unmarked) [Example 274, 7-[(4-Chlorophenyl)sulfonyl]-7-(2,5-difluorophenyl)-1-heptanol], which melting point is on record?
The melting point was 77 to 79 °C.

With `O=S(=O)(c1ccc(Cl)cc1)C1(c2cc(F)ccc2F)CCCCCC1` [Example 275] as the compound, how does the melting point read?
The melting point was 101 to 103 °C.

For `O=S(=O)(c1ccc(Cl)cc1)C(Cc1ccccc1CO)c1cc(F)ccc1F` (centres unmarked) [Example 277, [2-[2-[(4-Chlorophenyl)sulfonyl]-2-(2,5-difluorophenyl)ethyl]phenyl]methanol], which melting point is on record?
The melting point was 107 to 108 °C.

Which melting point does the source give for `O=S(=O)(c1ccc(Cl)cc1)C1(c2cc(F)ccc2F)Cc2ccccc2C1` [Example 278, 2-[(4-Chlorophenyl)sulfonyl]-2-(2,5-difluorophenyl)indane] here?
The melting point was 209 to 210 °C (dec.).

Which melting point does the source give for `CC1CCCC1(c1cc(F)ccc1F)S(=O)(=O)c1ccc(Cl)cc1` (centres unmarked) [Example 279, 2-[1-[(4-Chlorophenyl)sulfonyl]-2-methylcyclopentyl]-1,4-difluorobenzene] here?
The melting point was 105 to 109 °C.

Which melting point does the source give for `O=S(=O)(c1ccc(Cl)cc1)C1(c2ccccc2CO)CCCCC1` [Example 286, [2-[1-[(4-Chlorophenyl)sulfonyl]cyclohexyl]phenyl]methanol] here?
The melting point was 148 to 150 °C (dec.).

Which melting point does the source give for `CC(C)(C)OC(=O)N1CCC(C(c2cc(F)ccc2F)S(=O)(=O)c2ccc(Cl)cc2)CC1` (centres unmarked) [Example 290, t-Butyl 4-[[(4-chlorophenyl)sulfonyl](2,5-difluorophenyl)methyl]-1-piperidinecarboxylate] here?
The melting point was 193 to 196 °C.

With `O=S(=O)(c1ccc(Cl)cc1)C(Cc1cccs1)c1cc(F)ccc1F` (centres unmarked) [Example 295, 2-[2-[(4-Chlorophenyl)sulfonyl]-2-(2,5-difluorophenyl)ethyl]thiophene] as the compound, how does the melting point read?
The melting point was 127 to 130 °C.

With `O=S(=O)(c1ccc(Cl)cc1)C(Cc1ccco1)c1cc(F)ccc1F` (centres unmarked) [Example 296, 2-[2-[(4-Chlorophenyl)sulfonyl]-2-(2,5-difluorophenyl)ethyl]furan] as the compound, how does the melting point read?
Its melting point is 90 to 93 °C.

With `O=S(=O)(c1ccc(Cl)cc1)C(CCn1cccc1)c1cc(F)ccc1F` (centres unmarked) [Example 297, 1-[3-[(4-Chlorophenyl)sulfonyl]-3-(2,5-difluorophenyl)propyl]-1H-pyrrole] as the compound, how does the melting point read?
The melting point was 108 to 113 °C.

With `O=S(=O)(c1ccc(Cl)cc1)C(CCN1CCOCC1)c1cc(F)ccc1F` (centres unmarked) [Example 298, 4-[3-[(4-Chlorophenyl)sulfonyl]-3-(2,5-difluorophenyl)propyl]morpholine] as the compound, how does the melting point read?
Its melting point is 149 to 151 °C.

With `O=S(=O)(c1ccc(Cl)cc1)C(CCc1ccccc1)c1cc(F)ccc1F` (centres unmarked) [Example 304, 2-[1-(4-Chlorophenylsulfonyl)-3-phenylpropyl]-1,4-difluorobenzene] as the compound, how does the melting point read?
The melting point was 111 to 113 °C.

Which melting point does the source give for `Cc1ccccc1CCC(c1cc(F)ccc1F)S(=O)(=O)c1ccc(Cl)cc1` (centres unmarked) [Example 305, 2-[1-(4-Chlorophenylsulfonyl)-3-(2-methylphenyl)propyl]-1,4-difluorobenzene] here?
Its melting point is 105 to 106 °C.

For `Cc1cccc(CCC(c2cc(F)ccc2F)S(=O)(=O)c2ccc(Cl)cc2)c1` (centres unmarked) [Example 306, 2-[1-(4-Chlorophenylsulfonyl)-3-(3-methylphenyl)propyl]-1,4-difluorobenzene], which melting point is on record?
The melting point was 87 to 88 °C.

With `Cc1ccc(CCC(c2cc(F)ccc2F)S(=O)(=O)c2ccc(Cl)cc2)cc1` (centres unmarked) [Example 307, 2-[1-(4-Chlorophenylsulfonyl)-3-(4-methylphenyl)propyl]-1,4-difluorobenzene] as the compound, how does the melting point read?
Its melting point is 82 to 84 °C.

Which melting point does the source give for `COc1ccc(CCC(c2cc(F)ccc2F)S(=O)(=O)c2ccc(Cl)cc2)cc1` (centres unmarked) [Example 308, 2-[1-(4-Chlorophenylsulfonyl)-3-(4-methoxyphenyl)propyl]-1,4-difluorobenzene] here?
The melting point was 118 to 120 °C.
